The values below are quoted from earlier work in patent publication US6359007B1 (ChronoRX, LLC, priority 1999, dated 2002).

The structures appear in SMILES notation. Where two headings read alike, the source gives them in different places.

The conditions of data set [1]: per meal, curvilinear falloff.
For data set [2] the following is noted: in vivo.
The conditions of data set [3]: stomach in the "fed" state.
Assay in data set [4]: not given
This is another data set of the same source.

As for `[Mg+2]` [Mg^+2, Magnesium], the maximum bolus absorption in data set [1] was 8 meq.
With `O=C1O[C@H]([C@@H](O)CO)C(O)=C1O` [AA, ascorbic acid], the “mean steady state plasma concentration” value is on record as 12 mg/L (daily oral dose 200 mg) and 15 mg/L (daily oral dose 2500 mg).
Take `[Cu+2]` [Cu^+2, Copper]: in data set [2], the “Absorption (via carrier-mediated transport)” value is 30-40% and the “absorption of ingested Cu^+2” value is reported as 30-40%.
In the case of `N=C(N)NCCC[C@H](N)C(=O)O` [L-arginine], the “gastrointestinal uptake of dietary arginine” value in data set [3] is on record as “about 38%”.
`[Zn+2]` [Zn^+2, Zinc]: the “increase of mean plasma Zn^+2 above pre-load levels” value in data set [4] (11-fold increase in Zn^+2 intake) is given as “About 37%”. Besides, in data set [4] (in vivo), the “Zn^+2 absorption” value is recorded as 40% to 86, the “ingested Zn^+2 entering the plasma” value was “About 37%” and the “time by which gastrointestinal absorption is essentially complete” value was at most 4 h.
